Results taken from US20260308186A1, “STAT DEGRADERS AND USES THEREOF” (Recludix Pharma, Inc., priority 2023, published 2026).
Like-named read-outs stand apart in the source and are kept apart here.

What was measured:
pSTAT3 = target: T1, pSTAT3 (Homo sapiens, UniProt P40763); experiment: MSD-pSTAT-PBMC Assay, pSTAT3 (IL-6 stimulated PBMC); format: cell-based
T1 construct: pY705-STAT3 MSD read-out
Text: Cryopreserved Peripheral Blood Mononuclear Cells (PBMC) are from AllCells. Recombinant Human IL-4 and IL-6 are from Peprotech. Mouse monoclonal anti-STAT3 antibody, rabbit monoclonal anti-pY705-STAT3 antibody, rabbit monoclonal Anti-pY641-STAT6 antibody, and lysis buffer are from Cell Signaling Technology (CST). Mouse monoclonal anti-STAT6 antibody is from BioLegend. Assay plates, blocker, and anti-rabbit secondary antibody are from Meso Scale Discovery (MSD).
Cryopreserved PBMCs were thawed out and allowed to recover overnight in IMDM+10% heat-inactivated FBS prior to plating 50,000 (STAT3) or 25,000 (STAT6) cells per well in 96-well U-bottom tissue culture plates. Cells were treated with compound for 3 hrs. then stimulated with 10 ng/mL IL-6 (STAT3) or 1 ng/mL IL-4 (STAT6) for 10 min. Cells were then spun down and washed with ice-cold PBS prior to lysing the cell pellet with 1× lysis buffer (CST) with 1×HALT protease and phosphatase inhibitor cocktail (Thermo). Lysates were transferred to and incubated overnight at 4° C. with shaking in QuickPlex 96-well high bind assay plates (MSD) pre-coated overnight with 30 μL per well of 0.6 μg/mL mouse monoclonal anti-STAT3 antibody (STAT3) or 2 μg/mL mouse monoclonal anti-STAT6 antibody (STAT6) in 1×PBS, and pre-blocked for 1 hour with 3% Blocker-A (MSD). Captured protein in the assay plates were then washed and probed with 25 μL per well of 0.25 μg/ml rabbit monoclonal anti-pY705-STAT3 antibody (STAT3) or 0.18 μg/ml rabbit monoclonal Anti-pY641-STAT6 antibody (STAT6) in 1% Blocker-A for 1 hour at room temperature with shaking, then washed and probed with 25 ul per well of 1 ug/ml Sulfo-TAG Labeled Goat Anti-Rabbit Antibody (MSD) in 1% Blocker-A for 1 hour at room temperature with shaking. Assay plates were then washed and 150 μL of 1× Read Buffer-T (MSD) was added to each well prior to reading on an SQ120 MSD Plate Reader. Assay signal from each sample was subtracted by the signal from unstimulated control wells and normalized to DMSO control wells. IC50 values were calculated using Graph Pad Prism Dose-Response Nonlinear Regression with variable slope. For both pSTAT3 and pSTAT6 A=≤100 nM; B=>100-1000 nM; C=>1000-3000 nM; and D=>3 μM.

pSTAT6 = target: T2, pSTAT6 (Homo sapiens, UniProt P42226); experiment: MSD-pSTAT-PBMC Assay, pSTAT6 (IL-4 stimulated PBMC); format: cell-based
T2 construct: pY641-STAT6 MSD read-out
T2 sequence (P42226 1-847): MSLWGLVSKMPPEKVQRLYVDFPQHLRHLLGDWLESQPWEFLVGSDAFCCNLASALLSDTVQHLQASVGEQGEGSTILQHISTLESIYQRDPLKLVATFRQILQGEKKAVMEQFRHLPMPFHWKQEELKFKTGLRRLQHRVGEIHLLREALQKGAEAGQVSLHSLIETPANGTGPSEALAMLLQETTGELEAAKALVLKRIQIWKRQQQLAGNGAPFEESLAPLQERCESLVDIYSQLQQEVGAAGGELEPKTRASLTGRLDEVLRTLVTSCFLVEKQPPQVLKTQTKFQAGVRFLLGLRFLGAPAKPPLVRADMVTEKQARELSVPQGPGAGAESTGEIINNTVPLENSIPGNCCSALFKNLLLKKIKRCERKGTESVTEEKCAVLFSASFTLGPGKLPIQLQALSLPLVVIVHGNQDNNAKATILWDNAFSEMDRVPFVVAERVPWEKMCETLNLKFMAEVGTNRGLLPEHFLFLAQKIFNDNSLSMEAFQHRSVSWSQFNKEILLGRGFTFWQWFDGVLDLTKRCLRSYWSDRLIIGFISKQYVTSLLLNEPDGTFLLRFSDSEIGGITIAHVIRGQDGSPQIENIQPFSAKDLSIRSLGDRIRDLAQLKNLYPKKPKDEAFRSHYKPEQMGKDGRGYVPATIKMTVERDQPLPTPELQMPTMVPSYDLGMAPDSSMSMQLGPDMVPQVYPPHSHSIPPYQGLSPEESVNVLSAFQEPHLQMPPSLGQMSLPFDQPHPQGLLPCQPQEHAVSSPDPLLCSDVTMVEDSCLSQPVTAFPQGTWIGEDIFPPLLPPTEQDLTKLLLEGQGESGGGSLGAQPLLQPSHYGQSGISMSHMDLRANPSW
Method in brief: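 Human PBMC were recovered overnight, treated 3 h with compound, then stimulated for 10 min with 10 ng/mL IL-6 (pSTAT3) or 1 ng/mL IL-4 (pSTAT6). Lysates were read by MSD sandwich immunoassay, with total STAT capture and pY705-STAT3 or pY641-STAT6 detection. Signal minus unstimulated wells was normalized to DMSO, and IC50 came from a variable-slope fit.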

STAT6 = target: T3, STAT6 (Homo sapiens, UniProt P42226); experiment: STAT6 Fluorescence Polarization (FP) Assay; format: binding; details: recombinant STAT6(W123-T658) 250 nM; probe 5-FAM-Ap[…]-NH2 2 nM; 45 min, room temperature; read-out: STAT6 FP IC50
T3 construct: Recombinant STAT6 protein (STAT6(W123-T658))
T3 sequence (P42226 123-658): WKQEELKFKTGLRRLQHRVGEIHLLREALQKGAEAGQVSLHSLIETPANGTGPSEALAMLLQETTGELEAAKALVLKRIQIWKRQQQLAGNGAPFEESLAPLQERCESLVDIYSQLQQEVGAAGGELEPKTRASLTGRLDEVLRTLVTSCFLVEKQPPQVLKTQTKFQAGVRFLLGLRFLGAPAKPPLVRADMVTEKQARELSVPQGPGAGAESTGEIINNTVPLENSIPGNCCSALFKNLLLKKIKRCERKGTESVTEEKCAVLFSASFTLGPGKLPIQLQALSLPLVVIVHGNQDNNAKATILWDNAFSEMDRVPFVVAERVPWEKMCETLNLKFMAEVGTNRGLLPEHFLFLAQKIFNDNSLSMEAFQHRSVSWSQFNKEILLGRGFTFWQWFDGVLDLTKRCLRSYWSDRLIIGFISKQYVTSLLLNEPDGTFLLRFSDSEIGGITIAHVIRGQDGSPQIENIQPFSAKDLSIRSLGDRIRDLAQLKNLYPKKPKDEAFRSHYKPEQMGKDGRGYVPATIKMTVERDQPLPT
Method in brief: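 STAT6(W123-T658) at 250 nM plus 2 nM 5-FAM phosphotyrosine peptide probe in HEPES pH 7.4 buffer with 2 mM DTT, 1% DMSO final. Polarization read after 45 min at room temperature. IC50 from nonlinear regression of mP against log concentration.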

STAT3 = target: T4, STAT3 (Homo sapiens, UniProt P40763); experiment: STAT3 Fluorescence Polarization (FP) Assay; format: binding; details: recombinant STAT3 25 nM; probe 5-FAM-GpYLPQTV-NH2 2 nM; 45 min, room temperature; read-out: STAT3 FP IC50
T4 construct: Recombinant STAT3 protein (STAT3(G127-1722))

[1] = read-out: pSTAT3 IC50, compound 3 hrs, then 10 ng/mL IL-6 for 10 min, pY705-STAT3
[2] = read-out: pSTAT6 IC50, compound 3 hrs, then 1 ng/mL IL-4 for 10 min, pY641-STAT6
[3] = compound 3 hrs, then 10 ng/mL IL-6 for 10 min, pY705-STAT3, read-out: pSTAT3 IC50

T1 sequence (P40763 whole entry): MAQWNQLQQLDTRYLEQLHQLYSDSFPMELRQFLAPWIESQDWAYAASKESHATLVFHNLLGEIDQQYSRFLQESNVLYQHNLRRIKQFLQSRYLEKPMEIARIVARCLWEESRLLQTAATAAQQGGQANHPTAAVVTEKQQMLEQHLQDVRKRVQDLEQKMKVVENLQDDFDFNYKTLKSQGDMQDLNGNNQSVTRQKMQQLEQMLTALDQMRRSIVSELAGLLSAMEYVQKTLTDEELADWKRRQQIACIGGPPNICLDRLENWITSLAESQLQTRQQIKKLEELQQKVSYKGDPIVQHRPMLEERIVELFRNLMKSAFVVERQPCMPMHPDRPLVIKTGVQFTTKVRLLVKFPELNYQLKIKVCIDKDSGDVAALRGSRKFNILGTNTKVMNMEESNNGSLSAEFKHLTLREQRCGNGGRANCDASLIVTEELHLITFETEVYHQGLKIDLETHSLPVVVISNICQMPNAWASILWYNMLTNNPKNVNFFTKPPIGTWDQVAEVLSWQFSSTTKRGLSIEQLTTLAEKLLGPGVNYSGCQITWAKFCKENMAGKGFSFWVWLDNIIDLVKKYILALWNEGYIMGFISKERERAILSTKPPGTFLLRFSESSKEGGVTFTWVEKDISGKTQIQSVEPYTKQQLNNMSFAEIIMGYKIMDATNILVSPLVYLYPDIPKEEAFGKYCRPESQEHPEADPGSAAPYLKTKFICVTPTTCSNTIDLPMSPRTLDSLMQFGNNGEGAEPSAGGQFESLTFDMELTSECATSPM
T4 sequence (P40763 127-722 limits assumed): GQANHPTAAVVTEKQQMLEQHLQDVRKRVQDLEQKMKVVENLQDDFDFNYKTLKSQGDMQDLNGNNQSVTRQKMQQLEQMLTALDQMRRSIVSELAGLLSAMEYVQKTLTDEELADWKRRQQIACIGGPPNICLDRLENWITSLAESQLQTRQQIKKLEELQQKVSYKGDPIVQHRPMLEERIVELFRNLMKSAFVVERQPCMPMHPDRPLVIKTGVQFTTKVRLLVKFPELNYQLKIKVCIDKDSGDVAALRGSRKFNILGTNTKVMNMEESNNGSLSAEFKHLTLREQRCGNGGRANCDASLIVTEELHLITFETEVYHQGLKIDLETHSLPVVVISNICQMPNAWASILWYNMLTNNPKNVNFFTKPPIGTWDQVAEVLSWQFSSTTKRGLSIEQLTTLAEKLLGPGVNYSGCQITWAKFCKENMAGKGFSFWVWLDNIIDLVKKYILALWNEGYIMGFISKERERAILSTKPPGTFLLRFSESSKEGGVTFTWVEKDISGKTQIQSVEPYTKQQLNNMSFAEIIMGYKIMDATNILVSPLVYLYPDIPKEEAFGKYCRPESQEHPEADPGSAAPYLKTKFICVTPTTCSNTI

| Structure (SMILES) | IC50 (pSTAT3; [1]) [µM] | IC50 (pSTAT6; [2]) [µM] | IC50 (pSTAT3; [3]) [µM] | IC50 (pSTAT6; compound 3 hrs, then 1 ng/mL IL-4 for 10 min, pY641-STAT6, read-out: pSTAT6 IC50) [µM] | IC50 (STAT6) [µM] | IC50 (STAT3) [µM] |
| --- | --- | --- | --- | --- | --- | --- |
| CCCC(=O)SCCOP(=O)(OCCSC(=O)CCC)C(F)(F)c1ccc2ccc(C(=O)N[C@H]3CN(C(=O)c4n[nH]c5ccc(C)cc45)CC[C@H]4CC[C@@H](C(=O)NCCCCCCCCC(=O)N[C@H](C(=O)N5C[C@H](O)C[C@H]5C(=O)N[C@@H](C)c5ccc(-c6scnc6C)cc5)C(C)(C)C)N4C3=O)cc2c1 [Compound 8, S,S′-((((difluoro(7-(((5S,8S,10aR)-8-((9-(((S)-1-((2S,4R)-4-hydroxy-2-(((S)-1-(4-(4-methylthiazol-5-yl)phenyl)ethyl)carbamoyl)pyrrolidin-1-yl)-3,3-dimethyl-1-oxobutan-2-yl)amino)-9-oxononyl)carbamoyl)-3-(5-methyl-1H-indazole-3-carbonyl)-6-oxodecahydropyrrolo[1,2-a][1,5]diazocin-5-yl)carbamoyl)naphthalen-2-yl)methyl)phosphoryl)bis(oxy))bis(ethane-2,1-diyl)) dibutanethioate] | > 3 | 1 to 3 |  |  |  |  |
| CCCC(=O)SCCOP(=O)(OCCSC(=O)CCC)C(F)(F)c1ccc2ccc(C(=O)N[C@H]3CN(C(=O)c4n[nH]c5ccc(C)cc45)CC[C@H]4CC[C@@H](C(=O)NCCCCCCC#Cc5cccc6c5CN(C5CCC(=O)NC5=O)C6=O)N4C3=O)cc2c1 (stereo partly drawn) [Compound 10, S,S′-(((((7-(((5S,8S,10aR)-8-((8-(2-(2,6-dioxopiperidin-3-yl)-1-oxoisoindolin-4-yl)oct-7-yn-1-yl)carbamoyl)-3-(5-methyl-1H-indazole-3-carbonyl)-6-oxodecahydropyrrolo[1,2-a][1,5]diazocin-5-yl)carbamoyl)naphthalen-2-yl)difluoromethyl)phosphoryl)bis(oxy))bis(ethane-2,1-diyl)) dibutanethioate] | > 3 | < 0.1 |  |  |  |  |
| CCCC(=O)SCCOP(=O)(OCCSC(=O)CCC)C(F)(F)c1ccc2ccc(C(=O)N[C@H]3CN(C(=O)c4n[nH]c5ccc(C)cc45)CC[C@H]4CC[C@@H](C(=O)N(C)CCCCCCC#Cc5cccc6c5CN(C5CCC(=O)NC5=O)C6=O)N4C3=O)cc2c1 (stereo partly drawn) [Compound 12, S,S′-(((((7-(((5S,8S,10aR)-8-((8-(2-(2,6-dioxopiperidin-3-yl)-1-oxoisoindolin-4-yl)oct-7-yn-1-yl)(methyl)carbamoyl)-3-(5-methyl-1H-indazole-3-carbonyl)-6-oxodecahydropyrrolo[1,2-a][1,5]diazocin-5-yl)carbamoyl)naphthalen-2-yl)difluoromethyl)phosphoryl)bis(oxy))bis(ethane-2,1-diyl)) dibutanethioate] | > 3 | < 0.1 |  |  |  |  |
| CCCOC(=O)[C@H](C)NP(=O)(Oc1ccccc1)C(F)c1ccc2ccc(C(=O)N[C@H]3CN(C(=O)c4n[nH]c5ccc(C)cc45)CC[C@H]4CC[C@@H](C(=O)N(C)CCCCCCC#Cc5cccc6c5CN(C5CCC(=O)NC5=O)C6=O)N4C3=O)cc2c1 (stereo partly drawn) [Compound 13, propyl (((7-(((5S,8S,10aR)-8-((8-(2-(2,6-dioxopiperidin-3-yl)-1-oxoisoindolin-4-yl)oct-7-yn-1-yl)(methyl)carbamoyl)-3-(5-methyl-1H-indazole-3-carbonyl)-6-oxodecahydropyrrolo[1,2-a][1,5]diazocin-5-yl)carbamoyl)naphthalen-2-yl)fluoromethyl)(phenoxy)phosphoryl)-L-alaninate] | > 3 | > 3 |  |  |  |  |
| Cc1ccc2onc(C(=O)N3CC[C@H]4CC[C@@H](C(=O)N(C)CCCCCCC#Cc5cccc6c5CN(C5CCC(=O)NC5=O)C6=O)N4C(=O)[C@@H](NC(=O)c4ccc5ccc(C(F)(F)P(=O)(OCCSC(=O)CC(C)C)OCCSC(=O)CC(C)C)cc5c4)C3)c2c1 (stereo partly drawn) [Compound 21, S,S′-(((((7-(((5S,8S,10aR)-8-((8-(2-(2,6-dioxopiperidin-3-yl)-1-oxoisoindolin-4-yl)oct-7-yn-1-yl)(methyl)carbamoyl)-3-(5-methylbenzo[d]isoxazole-3-carbonyl)-6-oxodecahydropyrrolo[1,2-a][1,5]diazocin-5-yl)carbamoyl)naphthalen-2-yl)difluoromethyl)phosphoryl)bis(oxy))bis(ethane-2,1-diyl)) bis(3-methylbutanethioate)] |  |  | > 3 | < 0.1 |  |  |
| CN(C)c1ccncc1C1CN(C(=O)[C@@H]2CC[C@@H]3CCN(C(=O)CCCCCC#Cc4cccc5c4CN(C4CCC(=O)NC4=O)C5=O)C[C@H](NC(=O)c4cc5cc(C(F)(F)P(=O)(O)O)ccc5s4)C(=O)N32)C1 (stereo partly drawn) [Compound 39, ((2-(((5S,8S,10aR)-8-(3-(4-(dimethylamino)pyridin-3-yl)azetidine-1-carbonyl)-3-(8-(2-(2,6-dioxopiperidin-3-yl)-1-oxoisoindolin-4-yl)oct-7-ynoyl)-6-oxodecahydropyrrolo[1,2-a][1,5]diazocin-5-yl)carbamoyl)benzo[b]thiophen-5-yl)difluoromethyl)phosphonic acid] |  |  | 0.1 to 1 |  | 3 to 30 | < 0.1 |
